According to patent US11331299B2, “Medicinal use of serrulatane diterpenes” (The University of Sydney, priority 2016, dated 2022):

Key:
Experiment in all cases: biochemical
Format in all cases: binding
[1] = biological target: receptors (Bioprint panel) (Homo sapiens, UniProt P04150); settings: read-out: % Inhibition of Control Specific Binding
[2] = biological target: receptors (Bioprint panel) (Homo sapiens, UniProt P08588); settings: […] beta 1 (h) (agonist radioligand); 10 μM; read-out: % Inhibition of Control Specific Binding
[3] = biological target: receptors (Bioprint panel) (Homo sapiens, UniProt P08908); settings: read-out: % Inhibition of Control Specific Binding
receptors (Bioprint panel) (Homo sapiens, UniProt P08908), sequence (P08908 whole entry): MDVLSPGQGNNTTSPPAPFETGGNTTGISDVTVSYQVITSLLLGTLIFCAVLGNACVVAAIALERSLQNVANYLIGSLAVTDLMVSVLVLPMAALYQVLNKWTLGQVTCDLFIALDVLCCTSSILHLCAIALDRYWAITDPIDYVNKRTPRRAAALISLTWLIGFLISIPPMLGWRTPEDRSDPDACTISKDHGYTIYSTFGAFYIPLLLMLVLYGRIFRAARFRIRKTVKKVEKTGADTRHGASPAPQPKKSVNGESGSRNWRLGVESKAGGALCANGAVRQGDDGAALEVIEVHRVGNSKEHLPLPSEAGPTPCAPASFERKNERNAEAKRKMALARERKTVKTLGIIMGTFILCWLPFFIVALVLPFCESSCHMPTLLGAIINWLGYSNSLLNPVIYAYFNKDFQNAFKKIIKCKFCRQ

[4] = biological target: receptors (Bioprint panel) (Homo sapiens, UniProt P10275); settings: 10 μM
[5] = biological target: receptors (Bioprint panel) (Homo sapiens, UniProt P14867); settings: GABAA1 (h) (alpha 1, beta 2, gamma 2) (agonist radioligand); 10 μM; read-out: % Inhibition of Control Specific Binding
receptors (Bioprint panel) (Homo sapiens, UniProt P14867), sequence (P14867 28-456): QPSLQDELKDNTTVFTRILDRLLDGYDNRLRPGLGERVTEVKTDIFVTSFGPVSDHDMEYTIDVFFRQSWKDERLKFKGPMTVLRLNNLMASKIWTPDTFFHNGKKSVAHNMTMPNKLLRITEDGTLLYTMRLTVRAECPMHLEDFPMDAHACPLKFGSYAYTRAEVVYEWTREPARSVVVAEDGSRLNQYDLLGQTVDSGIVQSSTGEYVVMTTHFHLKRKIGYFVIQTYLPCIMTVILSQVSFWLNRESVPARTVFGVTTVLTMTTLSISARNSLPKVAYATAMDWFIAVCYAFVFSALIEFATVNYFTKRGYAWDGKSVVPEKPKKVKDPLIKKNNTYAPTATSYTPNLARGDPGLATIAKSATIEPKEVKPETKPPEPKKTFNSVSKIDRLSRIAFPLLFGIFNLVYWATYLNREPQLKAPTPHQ

[6] = biological target: receptors (Bioprint panel) (Homo sapiens, UniProt P20309); settings: […] M3 (h) (antagonist radioligand); 10 μM; read-out: % Inhibition of Control Specific Binding
[7] = biological target: receptors (Bioprint panel) (Homo sapiens, UniProt P25021); settings: HISTAMINE H2 (h) (antagonist radioligand); 10 μM; read-out: % Inhibition of Control Specific Binding
receptors (Bioprint panel) (Homo sapiens, UniProt P25021), sequence (P25021 whole entry): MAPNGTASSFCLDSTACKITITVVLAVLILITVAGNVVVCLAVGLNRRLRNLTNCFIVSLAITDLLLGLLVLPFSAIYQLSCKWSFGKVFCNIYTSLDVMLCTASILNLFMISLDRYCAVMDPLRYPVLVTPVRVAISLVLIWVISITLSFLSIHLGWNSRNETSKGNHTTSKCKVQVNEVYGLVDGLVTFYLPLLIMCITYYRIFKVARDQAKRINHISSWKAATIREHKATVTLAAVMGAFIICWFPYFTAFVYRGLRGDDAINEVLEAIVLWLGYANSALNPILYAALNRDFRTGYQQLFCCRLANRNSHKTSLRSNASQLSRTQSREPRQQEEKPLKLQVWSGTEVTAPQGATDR

[8] = biological target: receptors (Bioprint panel) (Homo sapiens, UniProt P29274); settings: ADENOSINE A2A (h) (agonist radioligand); 10 μM; read-out: % Inhibition of Control Specific Binding
[9] = biological target: receptors (Bioprint panel) (Homo sapiens, UniProt P29275); settings: ADENOSINE A2B (h) (antagonist radioligand); 10 μM; read-out: % Inhibition of Control Specific Binding
receptors (Bioprint panel) (Homo sapiens, UniProt P29275), sequence (P29275 whole entry): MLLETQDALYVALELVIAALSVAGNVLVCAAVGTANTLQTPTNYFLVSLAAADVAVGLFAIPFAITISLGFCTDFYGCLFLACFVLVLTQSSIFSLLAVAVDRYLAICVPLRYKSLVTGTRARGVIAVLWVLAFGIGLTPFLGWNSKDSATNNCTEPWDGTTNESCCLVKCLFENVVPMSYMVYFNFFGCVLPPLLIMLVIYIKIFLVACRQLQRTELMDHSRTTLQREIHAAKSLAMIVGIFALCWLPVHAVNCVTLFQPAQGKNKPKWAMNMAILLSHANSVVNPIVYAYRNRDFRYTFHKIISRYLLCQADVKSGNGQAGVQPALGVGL

[10] = biological target: receptors (Bioprint panel) (Homo sapiens, UniProt P30411); settings: BRADYKININ B2 (h) (agonist radioligand); 10 μM; read-out: % Inhibition of Control Specific Binding
receptors (Bioprint panel) (Homo sapiens, UniProt P30411), sequence (P30411 whole entry): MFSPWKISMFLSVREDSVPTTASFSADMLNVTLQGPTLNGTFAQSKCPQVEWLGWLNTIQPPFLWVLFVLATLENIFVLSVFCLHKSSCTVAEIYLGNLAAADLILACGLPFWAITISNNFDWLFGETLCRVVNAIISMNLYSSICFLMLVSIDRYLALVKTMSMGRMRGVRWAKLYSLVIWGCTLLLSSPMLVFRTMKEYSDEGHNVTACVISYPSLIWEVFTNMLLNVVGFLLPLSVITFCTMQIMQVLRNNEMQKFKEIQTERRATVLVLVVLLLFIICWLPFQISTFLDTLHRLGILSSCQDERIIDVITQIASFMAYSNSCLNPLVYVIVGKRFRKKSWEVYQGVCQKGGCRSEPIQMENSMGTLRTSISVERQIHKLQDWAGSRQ

[11] = biological target: receptors (Bioprint panel) (Homo sapiens, UniProt P30542); settings: ADENOSINE A1 (h) (agonist radioligand); 10 μM; read-out: % Inhibition of Control Specific Binding
receptors (Bioprint panel) (Homo sapiens, UniProt P30542), sequence (P30542 whole entry): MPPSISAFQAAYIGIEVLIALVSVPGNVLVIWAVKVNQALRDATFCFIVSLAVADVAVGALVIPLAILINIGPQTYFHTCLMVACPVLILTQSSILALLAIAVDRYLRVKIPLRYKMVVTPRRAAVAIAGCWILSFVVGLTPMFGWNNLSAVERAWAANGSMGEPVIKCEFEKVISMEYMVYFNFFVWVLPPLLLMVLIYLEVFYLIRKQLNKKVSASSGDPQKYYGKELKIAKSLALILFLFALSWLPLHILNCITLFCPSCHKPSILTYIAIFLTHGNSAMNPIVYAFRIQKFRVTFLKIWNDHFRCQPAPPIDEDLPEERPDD

[12] = biological target: receptors (Bioprint panel) (Homo sapiens, UniProt P31645); settings: 5-HT transporter (h) (antagonist radioligand); 10 μM; read-out: % Inhibition of Control Specific Binding
receptors (Bioprint panel) (Homo sapiens, UniProt P31645), sequence (P31645 whole entry): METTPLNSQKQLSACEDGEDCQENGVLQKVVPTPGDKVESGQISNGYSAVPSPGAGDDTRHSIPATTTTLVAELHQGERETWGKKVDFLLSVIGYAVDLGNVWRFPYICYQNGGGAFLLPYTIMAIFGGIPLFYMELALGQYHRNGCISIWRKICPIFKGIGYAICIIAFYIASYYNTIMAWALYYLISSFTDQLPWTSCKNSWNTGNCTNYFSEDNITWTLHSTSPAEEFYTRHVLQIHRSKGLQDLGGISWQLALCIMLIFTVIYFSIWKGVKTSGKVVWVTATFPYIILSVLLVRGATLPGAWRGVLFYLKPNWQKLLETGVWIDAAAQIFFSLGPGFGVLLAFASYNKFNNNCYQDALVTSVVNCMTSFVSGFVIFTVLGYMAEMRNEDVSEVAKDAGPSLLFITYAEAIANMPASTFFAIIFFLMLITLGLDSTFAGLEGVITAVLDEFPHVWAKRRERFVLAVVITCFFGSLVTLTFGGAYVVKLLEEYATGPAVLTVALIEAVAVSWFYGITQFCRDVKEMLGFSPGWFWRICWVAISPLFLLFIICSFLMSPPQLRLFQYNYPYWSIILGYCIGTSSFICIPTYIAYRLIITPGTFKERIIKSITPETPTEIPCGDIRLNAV

[13] = biological target: receptors (Bioprint panel) (Homo sapiens, UniProt P32241); settings: […] VPAC1 (VIP1) (h) (agonist radioligand); 10 μM; read-out: % Inhibition of Control Specific Binding
[14] = biological target: receptors (Bioprint panel) (Homo sapiens, UniProt P35348); settings: […] alpha 1A (h) (antagonist radioligand); 10 μM; read-out: % Inhibition of Control Specific Binding
receptors (Bioprint panel) (Homo sapiens, UniProt P35348), sequence (P35348 whole entry): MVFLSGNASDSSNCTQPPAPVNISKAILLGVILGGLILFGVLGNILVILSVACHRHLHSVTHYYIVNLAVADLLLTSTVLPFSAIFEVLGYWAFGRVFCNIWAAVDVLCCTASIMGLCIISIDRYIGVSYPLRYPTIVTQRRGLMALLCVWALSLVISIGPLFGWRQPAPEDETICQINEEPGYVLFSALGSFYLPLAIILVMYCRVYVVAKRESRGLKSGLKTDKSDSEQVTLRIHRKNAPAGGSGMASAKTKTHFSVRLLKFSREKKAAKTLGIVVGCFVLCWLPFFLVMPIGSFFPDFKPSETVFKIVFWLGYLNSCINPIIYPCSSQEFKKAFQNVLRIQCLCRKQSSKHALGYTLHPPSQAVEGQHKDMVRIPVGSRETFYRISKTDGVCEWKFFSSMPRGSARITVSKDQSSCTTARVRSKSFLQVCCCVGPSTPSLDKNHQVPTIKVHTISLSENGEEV

[15] = biological target: receptors (Bioprint panel) (Homo sapiens, UniProt P35372); settings: OPIOD & OPIOID-LIKE mu (MOP) (h) (agonist radioligand); 10 μM; read-out: % Inhibition of Control Specific Binding
receptors (Bioprint panel) (Homo sapiens, UniProt P35372), sequence (P35372 whole entry): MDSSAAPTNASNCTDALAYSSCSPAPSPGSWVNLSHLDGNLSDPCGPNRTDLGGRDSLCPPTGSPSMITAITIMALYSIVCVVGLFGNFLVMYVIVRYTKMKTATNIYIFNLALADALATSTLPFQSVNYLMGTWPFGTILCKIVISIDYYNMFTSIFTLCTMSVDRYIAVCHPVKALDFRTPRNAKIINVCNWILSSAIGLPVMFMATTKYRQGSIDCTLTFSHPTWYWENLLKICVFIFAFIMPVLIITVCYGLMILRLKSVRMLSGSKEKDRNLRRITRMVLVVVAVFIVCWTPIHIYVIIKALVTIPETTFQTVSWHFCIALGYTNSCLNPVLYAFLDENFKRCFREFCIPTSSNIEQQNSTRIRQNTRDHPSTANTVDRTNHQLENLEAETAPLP

[16] = biological target: receptors (Bioprint panel) (Homo sapiens, UniProt P37288); settings: VASOPRESSIN V1a (h) (agonist radioligand); 10 μM; read-out: % Inhibition of Control Specific Binding
receptors (Bioprint panel) (Homo sapiens, UniProt P37288), sequence (P37288 whole entry): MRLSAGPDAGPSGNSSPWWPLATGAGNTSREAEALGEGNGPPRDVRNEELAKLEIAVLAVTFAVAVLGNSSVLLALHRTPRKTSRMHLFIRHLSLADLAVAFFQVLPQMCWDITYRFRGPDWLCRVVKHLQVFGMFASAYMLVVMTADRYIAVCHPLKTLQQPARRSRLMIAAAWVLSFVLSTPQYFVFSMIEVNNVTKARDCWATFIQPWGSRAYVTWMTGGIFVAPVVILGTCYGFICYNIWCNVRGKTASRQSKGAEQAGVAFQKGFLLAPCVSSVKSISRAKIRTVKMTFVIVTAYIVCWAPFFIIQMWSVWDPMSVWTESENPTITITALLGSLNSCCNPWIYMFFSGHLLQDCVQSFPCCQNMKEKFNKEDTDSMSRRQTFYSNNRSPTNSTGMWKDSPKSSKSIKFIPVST

[17] = biological target: receptors (Bioprint panel) (Homo sapiens, UniProt P41595); settings: read-out: % Inhibition of Control Specific Binding
[18] = biological target: receptors (Bioprint panel) (Homo sapiens, UniProt P41597); settings: CHEMOKINES CCR2 (h) (agonist radioligand); 10 μM; read-out: % Inhibition of Control Specific Binding
receptors (Bioprint panel) (Homo sapiens, UniProt P41597), sequence (P41597 whole entry): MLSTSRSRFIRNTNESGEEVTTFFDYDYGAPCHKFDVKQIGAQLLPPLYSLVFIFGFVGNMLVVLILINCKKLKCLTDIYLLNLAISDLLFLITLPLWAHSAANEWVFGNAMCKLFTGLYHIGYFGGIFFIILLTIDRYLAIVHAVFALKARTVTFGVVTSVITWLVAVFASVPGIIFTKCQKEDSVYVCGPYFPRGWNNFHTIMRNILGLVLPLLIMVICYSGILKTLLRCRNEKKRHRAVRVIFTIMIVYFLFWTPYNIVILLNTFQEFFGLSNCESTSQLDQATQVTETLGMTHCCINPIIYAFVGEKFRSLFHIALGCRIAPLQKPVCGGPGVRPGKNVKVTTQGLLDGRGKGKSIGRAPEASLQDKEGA

[19] = biological target: receptors (Bioprint panel) (Homo sapiens, UniProt P41968); settings: MELANOCORTIN MC3 (h) (agonist radioligand); 10 μM; read-out: % Inhibition of Control Specific Binding
receptors (Bioprint panel) (Homo sapiens, UniProt P41968), sequence (P41968 whole entry): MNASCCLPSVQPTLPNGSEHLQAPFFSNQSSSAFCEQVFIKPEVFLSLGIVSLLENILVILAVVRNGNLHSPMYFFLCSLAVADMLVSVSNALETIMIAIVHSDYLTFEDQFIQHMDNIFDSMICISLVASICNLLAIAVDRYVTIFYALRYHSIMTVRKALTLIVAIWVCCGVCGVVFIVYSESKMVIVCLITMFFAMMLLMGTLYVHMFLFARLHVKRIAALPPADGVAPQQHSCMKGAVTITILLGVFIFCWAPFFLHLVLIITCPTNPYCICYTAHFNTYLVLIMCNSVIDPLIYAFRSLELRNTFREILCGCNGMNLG

[20] = biological target: receptors (Bioprint panel) (Homo sapiens, UniProt P43681); settings: NICOTINIC […] N neuronal alpha 4beta 2 (h) (agonist radioligand); 10 μM; read-out: % Inhibition of Control Specific Binding
[21] = biological target: receptors (Bioprint panel) (Homo sapiens, UniProt Q13639); settings: read-out: % Inhibition of Control Specific Binding
[22] = biological target: receptors (Bioprint panel) (Homo sapiens, UniProt Q99705); settings: MELANIN-CONCENTRATING-HORMONE MCH1 (h) (agonist radioligand); 10 μM; read-out: % Inhibition of Control Specific Binding
[23] = biological target: receptors (Bioprint panel) (Rattus norvegicus, UniProt P35439); settings: read-out: % Inhibition of Control Specific Binding
[24] = biological target: receptors (Bioprint panel) (Rattus norvegicus, UniProt Q02294); settings: Ca2+ channel (N) (antagonist radioligand); 10 μM; read-out: % Inhibition of Control Specific Binding
[25] = test system: receptors (Bioprint panel); settings: 10 μM

In the case of `CC(C)=CCC[C@H](CO)[C@@H]1CC[C@@H](C)c2c1cc(C)c(O)c2O` [Compound 1, 7,8,18-trihydroxyserrulat-14-ene], the inhibition at 10 µM [1] is reported as 47%, the inhibition at 10 µM [2] is reported as 19% and the inhibition at 10 µM [3] is reported as -18%. For the same molecule, the “% Inhibition of Control Specific Binding” value [4] was −9%, the inhibition at 10 µM [5] was -36% and the inhibition at 10 µM [6] was -3%. For the same molecule, the inhibition at 10 µM [7] was 37%, the inhibition at 10 µM [8] was 18% and the inhibition at 10 µM [9] was 8%. For the same molecule, the inhibition at 10 µM [10] was -37%, the inhibition at 10 µM [11] was 10% and the inhibition at 10 µM [12] was 56%. The inhibition at 10 µM [13] was -9%, the inhibition at 10 µM [14] was 17% and the inhibition at 10 µM [15] was 43%. For the same molecule, the inhibition at 10 µM [16] was 12%, the inhibition at 10 µM [17] was 70% and the inhibition at 10 µM [18] was 48%. For the same molecule, the inhibition at 10 µM [19] was 60%, the inhibition at 10 µM [20] was -3% and the inhibition at 10 µM [21] was 2%. It also gave an inhibition at 10 µM [22] of -5%, an inhibition at 10 µM [23] of 4% and an inhibition at 10 µM [24] of 5%. For the same molecule, the “% Inhibition of Control Specific Binding” value [25] was 11%, the “% Inhibition of Control Specific Binding” value ([25]; CYTOKINES TNF-alpha (h) (agonist radioligand)) was −23% and the “% Inhibition of Control Specific Binding” value ([25]; Ca2+ channel (L, dihydropyridine site) (antagonist radioligand)) was 55%. The “% Inhibition of Control Specific Binding” value ([25]; Ca2+ channel (L, diltiazem site) (benzothiazepines) (antagonist radioligand)) was −30%, the “% Inhibition of Control Specific Binding” value ([25]; Ca2+ channel (L, verapamil site) (phenylalkylamine) (antagonist radioligand)) was −4% and the “% Inhibition of Control Specific Binding” value ([25]; Cl- channel (GABA-gated) (antagonist radioligand)) was 42%. For the same molecule, the “% Inhibition of Control Specific Binding” value ([25]; GABA CHANNELS BZD (central) (agonist radioligand)) was −31%, the “% Inhibition of Control Specific Binding” value ([25]; GABA transporter (antagonist radioligand)) was −10% and the “% Inhibition of Control Specific Binding” value ([25]; GLUTAMATE CHANNELS AMPA (agonist radioligand)) was 4%. For the same molecule, the “% Inhibition of Control Specific Binding” value ([25]; GLUTAMATE CHANNELS NMDA (antagonist radioligand)) was 9%, the “% Inhibition of Control Specific Binding” value ([25]; GLUTAMATE CHANNELS PCP (antagonist radioligand)) was −11% and the “% Inhibition of Control Specific Binding” value ([25]; GLUTAMATE CHANNELS kainate (agonist radioligand)) was 15%. The “% Inhibition of Control Specific Binding” value ([25]; Na+ channel (site 2) (antagonist radioligand)) was 48%, the “% Inhibition of Control Specific Binding” value ([25]; SKCa channel (antagonist radioligand)) was 14% and the “% Inhibition of Control Specific Binding” value ([25]; Thyroid Hormone) was 9%.
